Assay results: US7371779B2, “Synergistic compositions of N-acylhomoserine lactones and 4-quinolones” (The Secretary of State for Defense Science and Technology, priority 2001, dated 2008)
Like-named read-outs stand apart in the source and are kept apart here.

System: human PBMC
Assay: ConA mitogen-stimulated proliferation of human PBMC ([3H]-thymidine incorporation)
Assay type: cell-based
Conditions: for IC50: Experiment II, read-out: IC50 in inhibition of ConA induced cell proliferation of PBMC
Method: Blood specimens were obtained with consent from healthy human volunteers. Human peripheral blood mononuclear cells (PBMC) were isolated from heparinised whole blood by buoyant density centrifugation over Histopaque 1077 (Sigma, Poole, UK) at 600 g for 20 minutes. PBMC harvested from the ‘buffy’ layers were washed twice with RPMI 1640 medium and resuspended in CTCM. […] Human PBMC were incubated for 48 h at 37° C. in 5% CO2-air, followed by pulsing with 0.25 μCi [^3H]-thymidine (see above). After a further incubation of 24 h cells were harvested onto fibreglass filters and then counted in the presence of MicroScint-O with the Packard TopCount.
Concanavalin induced cell proliferation of human peripheral blood mononuclear cells (PBMC) was tracked, as described in I above, by a measurement of counts per minute using the scintillation counter. The inhibitory effect of an HSL compound being tested on cell proliferation was indicated by a reduction in counts per minute. […] Columns B, C and D represent different sources of human PBMC samples used.
Plots of counts per minute (cpm) against the concentration of the quorum sensing molecules and the vehicle are shown in FIG. 11.

CCCCCCCCCC(=O)CC(=O)N[C@H]1CCOC1=O [Example 6]
effect of OdDHL alone on ConA induced hPBMC proliferation (6.25 μM, alone): inactive
inhibition of ConA induced proliferation of human PBMC (cpm), in words (ConA 1 μg/ml): inhibited proliferation of human PBMC
IC50 (human PBMC source B): 60 µM
IC50 (human PBMC source C): 7 µM
IC50 (human PBMC source D): 34 µM
